In assay [1] the test system is ischemic retinal neurocyte disorder. To be noted: calcium antagonists; experiment models such as high ocular pressure rat models and central retinal artery and vein ligation models; cited from earlier work.
Assay [2] has as its system retinal ganglion cells. The experiment in a line: cell death induction by increased intracellular calcium amount (kainic acid) in isolated retinal ganglion cells, MTT. To be noted: retinal ganglion cells of 8-day-old rats, 5 mM calcium chloride, pH 6.0, 1 h pre-incubation with compound, then 200 µM kainic acid, vs cell death induction group, P<0.01 (Fig. 2). It is filed as cell-based. How it is done:
The retina was obtained from ten 8-day-old rats and treated with papain to give a cell suspension. Using a non-coat dish (TERUMO) and a dish (CORNING) coated with Thy-1.1 antibody (American Type Culture Collection, […]), retinal ganglion cells alone were isolated from the whole cells of the retina. The retinal ganglion cells on the dish were trypsinized and recovered. Then the recovered retinal ganglion cells were plated on a 96 well plate coated with poly-D-lysine and laminin at a concentration of 5000 cells/well/100 μl. The isolated retinal ganglion cells were divided for the normal group, cell death induction group and inventive compound administration group. As the cultures of the cell death induction group and inventive compound administration group, calcium chloride was added to Neurobasal medium (GIBCO) at a final concentration of 5 mM to adjust its pH to 6.0 and used. As the additives to the culture, 40 ng/ml BDNF (Pepro Tech), 40 ng/ml CNTF (Sigma), 5 μM Forskolin (Sigma), 1 mM glutamine (Wako), 50x B27 supplement (GIBCO) and Pen-strep (GIBCO) were added. For the inventive compound administration group, the inventive compound was added simultaneously with the plating of the cells and pre-incubated at 37°C for 1 h. After 1 h, kainic acid having a final concentration of 200 μM was added and the mixture was incubated at 37°C to induce cell death. […]

For assay [3], the system named is retinal ganglion cells. The experiment in a line: central retinal artery and vein ligation model (ischemia/re-perfusion), retinal ganglion cell count. The conditions noted are these: male SD rats; hemostasis 55 minutes; 10 µg/kg via the tail vein twice (15 min before hemostasis and immediately after declamping); day 7 from release from ischemia; vs ischemic re-perfusion group, P<0.027 (Fig. 1, n=6). It is filed as in vivo. The procedure:
Effect of the inventive compound on an ophthalmic nerve cell disorder in rats was tested using a central retinal artery and vein ligation model, which is a model for examining increase in a calcium amount in an optic nerve cell.
Male SD rats (body weight 150 g) were grouped into a normal group, ischemic re-perfusion group and inventive compound administration group. The ischemic re-perfusion group and the inventive compound administration group were anesthetized with pentobarbital 50 mg/kg, and the central retinal artery and vein were ligated with an arterial aneurysm clip for hemostasis for 55 minutes. At 7 days from declamping, eyeballs were removed and fixed with 4% formaldehyde to prepare a tissue sample. After embedding in paraffin according to a conventional method, a thin slice (2 µm thick) was prepared by horizontal section vertical to a surface of the retina including the optic disc, and stained with hematoxylin-eosin. The number of retinal ganglion cells per a 0.25 mm retina vertical section at a certain distance (1-2 mm) from the optic disc was counted under an optical microscope. As regards the normal group, the number of retinal ganglion cells was counted in the same manner only with exposure of the central retinal artery and vein and without hemostasis. […]
Significance was detected by the Student's t-Test.

We go through two compounds from patent EP1181934A1, “INHIBITORS FOR OPTIC HYPOFUNCTION CAUSED BY OPTIC NERVE CELL INJURY INDUCED BY FACTORS OTHER THAN OPTIC CIRCULATORY DISORDER” (Senju Pharmaceutical Co., Ltd., priority 1999, dated 2000).

In the case of `Fc1ccc(C(c2ccc(F)cc2)N2CCN(C/C=C/c3ccccc3)CC2)cc1` [flunarizine], the “inhibition of ischemic retinal neurocyte disorder” value in assay [1] is “inhibited ischemic retinal neurocyte disorder”.
Regarding `C=CCN1CCN(CC(C)(C)COC(=O)C2=C(C)NC(C)=C(C(=O)OC)C2c2cccc([N+](=O)[O-])c2)CC1.Cl.Cl` (stereo not drawn) [inventive compound, 3-(4-allyl-1-piperazinyl)-2,2-dimethylpropyl methyl 2,6-dimethyl-4-(m-nitrophenyl)-1,4-dihydropyridine-3,5-dicarboxylate dihydrochloride], the “viability (%) relative to that of a normal group (retinal ganglion cell count)” value in the assay on retinal ganglion cells [2] is “significantly inhibited decrease in the retinal ganglion cell count”. For the same compound, the “number of residual retinal ganglion cells in 0.25 mm of vertical retinal cross section” value in the assay with retinal ganglion cells [3] was “significantly inhibited decrease in the retinal ganglion cell count”.
